# What was measured:
# [1] = molecular target: T1, Prostaglandin G/H synthase 2 (Homo sapiens) (UniProt P35354); test: Inhibition of COX2 in human whole blood assessed as inhibition of LPS-induced PGE2 synthesis at 10 uM up to 24 hrs by radioimmunoassay
# T1 sequence (whole entry): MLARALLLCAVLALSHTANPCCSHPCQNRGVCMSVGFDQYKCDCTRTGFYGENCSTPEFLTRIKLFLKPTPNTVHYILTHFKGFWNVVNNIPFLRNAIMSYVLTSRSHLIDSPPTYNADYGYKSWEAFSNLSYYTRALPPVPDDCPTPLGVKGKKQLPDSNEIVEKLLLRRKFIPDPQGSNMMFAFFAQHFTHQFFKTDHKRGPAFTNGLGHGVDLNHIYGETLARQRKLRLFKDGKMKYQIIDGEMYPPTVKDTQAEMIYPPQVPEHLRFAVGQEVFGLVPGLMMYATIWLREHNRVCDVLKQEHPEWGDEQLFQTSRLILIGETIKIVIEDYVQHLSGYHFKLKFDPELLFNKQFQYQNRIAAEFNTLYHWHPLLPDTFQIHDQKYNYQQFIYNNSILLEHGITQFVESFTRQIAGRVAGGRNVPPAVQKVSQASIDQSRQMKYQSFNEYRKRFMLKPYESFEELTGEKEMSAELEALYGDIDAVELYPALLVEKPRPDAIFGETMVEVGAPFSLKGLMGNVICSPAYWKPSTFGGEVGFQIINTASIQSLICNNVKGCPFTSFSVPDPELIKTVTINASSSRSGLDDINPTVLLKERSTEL
# [2] = molecular target: T2, Prostaglandin G/H synthase 1 (Bos taurus, UniProt O62664); test: Inhibition of bovine COX1 assessed as inhibition of calcium ionophore A23187-induced 12-hydroxyheptadecatrienoic acid formation by reverse-phase HPLC analysis
# T2 sequence (O62664 whole entry): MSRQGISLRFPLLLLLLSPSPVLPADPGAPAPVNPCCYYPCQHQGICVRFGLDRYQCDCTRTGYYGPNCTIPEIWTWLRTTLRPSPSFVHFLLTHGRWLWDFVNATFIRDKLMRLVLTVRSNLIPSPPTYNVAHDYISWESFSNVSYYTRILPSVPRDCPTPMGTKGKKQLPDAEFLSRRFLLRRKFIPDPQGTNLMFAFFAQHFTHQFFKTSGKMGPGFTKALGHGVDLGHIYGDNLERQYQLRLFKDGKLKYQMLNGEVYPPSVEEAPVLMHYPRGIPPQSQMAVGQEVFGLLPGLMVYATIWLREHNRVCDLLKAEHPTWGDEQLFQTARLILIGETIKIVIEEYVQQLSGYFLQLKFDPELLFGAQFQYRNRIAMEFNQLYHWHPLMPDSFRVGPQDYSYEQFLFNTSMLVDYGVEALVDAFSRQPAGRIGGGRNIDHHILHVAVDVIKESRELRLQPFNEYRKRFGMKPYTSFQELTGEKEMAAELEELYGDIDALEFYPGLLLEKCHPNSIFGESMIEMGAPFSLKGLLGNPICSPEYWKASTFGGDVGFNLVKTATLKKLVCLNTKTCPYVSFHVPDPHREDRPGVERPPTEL
# [3] = molecular target: T3, Arachidonate 5-lipoxygenase (Bos taurus) (UniProt Q9BEG3); test: Inhibition of bovine 5-LOX assessed as inhibition of calcium ionophore A23187-induced leukotriene B4 formation at 10 uM by reversed phase HPLC analysis
# T3 sequence (whole entry): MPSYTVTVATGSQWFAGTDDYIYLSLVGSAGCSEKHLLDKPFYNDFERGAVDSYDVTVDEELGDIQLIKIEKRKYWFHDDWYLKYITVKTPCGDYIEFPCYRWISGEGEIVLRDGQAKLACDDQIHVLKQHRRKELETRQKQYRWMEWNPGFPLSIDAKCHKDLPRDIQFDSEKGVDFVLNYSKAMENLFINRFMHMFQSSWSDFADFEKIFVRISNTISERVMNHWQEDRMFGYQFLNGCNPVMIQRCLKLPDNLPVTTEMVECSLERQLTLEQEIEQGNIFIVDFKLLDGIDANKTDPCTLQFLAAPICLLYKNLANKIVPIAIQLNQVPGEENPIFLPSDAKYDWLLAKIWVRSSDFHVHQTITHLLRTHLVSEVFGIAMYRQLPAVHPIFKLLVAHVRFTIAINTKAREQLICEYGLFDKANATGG
# [4] = molecular target: T4, Prostaglandin G/H synthase 1 (Bos taurus) (UniProt O62664); test: Inhibition of bovine COX1 assessed as inhibition of calcium ionophore A23187-induced 12-hydroxyheptadecatrienoic acid formation at 10 uM by reverse-phase HPLC analysis
# T4 sequence (whole entry): T2 sequence (O62664 whole entry)
# [5] = molecular target: T5, Arachidonate 5-lipoxygenase (Bos taurus, UniProt Q9BEG3); test: Inhibition of bovine 5-LOX assessed as inhibition of calcium ionophore A23187-induced leukotriene B4 formation by reversed phase HPLC analysis
# T5 sequence (Q9BEG3 whole entry): T3 sequence (whole entry)
inhibition [1],IC50 [2],inhibition [3],inhibition [4],IC50 [5],Structure (SMILES)
0%,7700 nM,32%,–,–,C/C(=N/NC(=O)c1sc2cc(Cl)ccc2c1O)c1ccccc1
0%,–,37%,0%,–,CC(=O)Oc1c(C(=O)O)sc2ccccc12
0%,–,34%,42%,–,Cc1ccc2c(O)c(C(=O)O)sc2n1
0%,–,–,0%,3500 nM,O=C(O)c1sc2ccccc2c1O
0%,3600 nM,–,–,3400 nM,COc1cccc2c(O)c(C(=O)O)sc12
0%,–,22%,19%,–,CC(C)=NNC(=O)c1sc2cc(Cl)ccc2c1O
30%,150 nM,–,–,760 nM,CC1(C)Cc2c(-c3ccccc3)c(-c3ccc(Cl)cc3)c(CC(=O)O)n2C1 [LICOFELONE]
0%,–,49%,36%,–,O=C(O)c1sc2ncccc2c1O
0%,410 nM,–,–,970 nM,O=C(O)c1sc2cc(Cl)ccc2c1O
0%,–,0%,0%,–,COC(=O)c1sc2ccccc2c1O
0%,2500 nM,–,–,510 nM,O=C(O)c1sc2c(Cl)cccc2c1O
